This note sets out measurements from patent US10125134B2 (Mirati Therapeutics, Inc., priority 2016, dated 2018).

The test system of experiment [1] is NCI-H358 cells (express KRas G12C), Phospho-ERK. In words: Cellular inhibition of KRas G12C: Phospho-ERK in NCI-H358 cells. The experiment is classed as cell-based. Particulars: Homo sapiens, pERK(Thr202/Tyr204) normalized with GAPDH, NCI-H358 cells, 3 hours, read-out: IC50. The method, boiled down:
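IC50 derived by 4-parameter fit of GAPDH-normalized pERK(Thr202/Tyr204) signal, as percent of DMSO control. Signal came from in-cell immunodetection with infrared secondaries after 3 h compound exposure of KRas G12C NCI-H358 cells at 0.5% DMSO.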

A further experiment has as its target KRas G12C (Homo sapiens, UniProt P01116, C118S/C51S/C80L/G12C). In words: KRas G12C Modification Assay (LCMS detection of covalent adduct). The experiment is classed as binding. Particulars: normalized percent of control; tested at 5 μM concentration for 3 hours. The procedure, abridged:
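Cys-light KRas G12C mutant protein incubated with compound in K-Ras assay buffer, reactions quenched at set time points with 25 mM acetic acid and analysed by intact-protein LC/MS on a C-3 column. Deconvoluted mass heights expressed as percent of control (POC) relative to compound-free protein.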

Each structure is given as a SMILES string. pIC50: −log10 of the molar value. Like-named read-outs stand apart in the source and are kept apart here. A value given as a limit tells only on which side of the number the result lay.

Usually pIC50 stands for the IC50 on a negative log10 scale, so that one unit is a factor of ten.

In the case of `C=CC(=O)N1CCN(c2nc(O[C@H](C)CN(C)C)nc3c2CCN(c2cc(O)ccc2OC(F)(F)F)C3)CC1` [Example 78, (R)-1-(4-(2-((1-(dimethylamino)propan-2-yl)oxy)-7-(5-hydroxy-2-(trifluoromethoxy)phenyl)-5,6,7,8-tetrahydropyrido[3,4-d]pyrimidin-4-yl)piperazin-1-yl)prop-2-en-1-one], in experiment [1], the pIC50 is less than 6.00. Besides, the POC entry on KRas G12C is recorded as “C (“C”>50% POC)”.

Take `C=CC(=O)N1CCN(c2nc(O[C@H](C)CN(C)C)nc3c2CCN(c2cc(O)ccc2C(F)(F)F)C3)CC1` [Example 79, (R)-1-(4-(2-((1-(dimethylamino)propan-2-yl)oxy)-7-(5-hydroxy-2-(trifluoromethyl)phenyl)-5,6,7,8-tetrahydropyrido[3,4-d]pyrimidin-4-yl)piperazin-1-yl)prop-2-en-1-one]: the pIC50 in experiment [1] is less than 6.00. For the same molecule, the POC entry at KRas G12C is reported as “A (“A”≤25% POC)”.

As to `C=CC(=O)N1CCN(c2nc(OCC3CN(C)CCN3)nc3c2CCN(c2cc(O)cc4ccccc24)C3)CC1` (stereo not drawn) [Example 80, 1-(4-(7-(3-hydroxynaphthalen-1-yl)-2-((4-methylpiperazin-2-yl)methoxy)-5,6,7,8-tetrahydropyrido[3,4-d]pyrimidin-4-yl)piperazin-1-yl)prop-2-en-1-one], the pIC50 in experiment [1] (NCI-H358, 3 h) is less than 6.00. Besides, the POC entry on KRas G12C was “C (“C”>50% POC)”.

For the molecule `C=CC(=O)N1CCN(c2nc(OCCN3CCC(C#N)CC3)nc3c2CCN(c2cc(O)cc4ccccc24)C3)CC1` [Example 81, 1-(2-((4-(4-acryloylpiperazin-1-yl)-7-(3-hydroxynaphthalen-1-yl)-5,6,7,8-tetrahydropyrido[3,4-d]pyrimidin-2-yl)oxy)ethyl)piperidine-4-carbonitrile], the pIC50 in experiment [1] (NCI-H358, 3 h) is less than 6.00. At KRas G12C, the POC result is “C (“C”>50% POC)”.

As for `C=CC(=O)N1CCN(c2nc(OCCCN3CCN(C)CC3)nc3c2CCN(c2cc(O)cc4ccccc24)C3)CC1` [Example 82, 1-(4-(7-(3-hydroxynaphthalen-1-yl)-2-(3-(4-methylpiperazin-1-yl)propoxy)-5,6,7,8-tetrahydropyrido[3,4-d]pyrimidin-4-yl)piperazin-1-yl)prop-2-en-1-one], in experiment [1] (NCI-H358, 3 h), the pIC50 is 6.00 to 10.00. Besides, the POC entry on KRas G12C is recorded as “C (“C”>50% POC)”.

For the molecule `C=CC(=O)N1CCN(c2nc(OCCN(C)CCO)nc3c2CCN(c2cc(O)cc4ccccc24)C3)CC1` [Example 83, 1-(4-(2-(2-((2-hydroxyethyl)(methyl)amino)ethoxy)-7-(3-hydroxynaphthalen-1-yl)-5,6,7,8-tetrahydropyrido[3,4-d]pyrimidin-4-yl)piperazin-1-yl)prop-2-en-1-one], in experiment [1] (NCI-H358, 3 h), the pIC50 was less than 6.00. Moreover, the POC result at KRas G12C is on record as “C (“C”>50% POC)”.

Regarding `C=CC(=O)N1CCN(c2nc(O[C@H](C)CN(C)C)nc3c2CCN(c2c(O)ccc(C)c2F)C3)CC1` [Example 84, (R)-1-(4-(2-((1-(dimethylamino)propan-2-yl)oxy)-7-(2-fluoro-6-hydroxy-3-methylphenyl)-5,6,7,8-tetrahydropyrido[3,4-d]pyrimidin-4-yl)piperazin-1-yl)prop-2-en-1-one], the pIC50 in experiment [1] was less than 6.00. The POC result at KRas G12C is “A (“A”≤25% POC)”.

For the molecule `C=CC(=O)N1CCN(c2nc(OCCN3CCCC3)nc3c2CCN(c2cc(O)cc4ccccc24)C3)CC1` [Example 85, 1-(4-(7-(3-hydroxynaphthalen-1-yl)-2-(2-(pyrrolidin-1-yl)ethoxy)-5,6,7,8-tetrahydropyrido[3,4-d]pyrimidin-4-yl)piperazin-1-yl)prop-2-en-1-one], the pIC50 in experiment [1] (NCI-H358, 3 h) was less than 6.00. Also, the POC result at KRas G12C is listed as “C (“C”>50% POC)”.

Regarding `C=CC(=O)N1CCN(c2nc(O[C@H](C)CN(C)C)nc3c2CCN(c2cc(OC(F)(F)F)ccc2O)C3)CC1` [Example 86, (R)-1-(4-(2-((1-(dimethylamino)propan-2-yl)oxy)-7-(2-hydroxy-5-(trifluoromethoxy)phenyl)-5,6,7,8-tetrahydropyrido[3,4-d]pyrimidin-4-yl)piperazin-1-yl)prop-2-en-1-one], in experiment [1], the pIC50 was less than 6.00. Also, the POC entry at KRas G12C was “A (“A”≤25% POC)”.
